Reference: patent US4604380A, “C-23-substituted mycaminosyltylonolide compounds, pharmaceutical compositions and methods of use” (Eli Lilly and Company, priority 1985, dated 1986)
Converted amounts (≈) assume the structure as drawn. “And” between values parts separate entries of the source, which are not always exact repeats. Equal entries are not always repeated. Where two headings read alike, the source gives them in different places.

Experiments:
[1] = tested on: Streptococcous pneumoniae; test: ED50 vs. Streptococcous pneumoniae experimental infection in mice (Table VII); type: in vivo; settings: Mus musculus, sc, subcutaneous, two doses, read-out: ED50 Subcutaneous
Method: (§1) Certain formula 1a compounds have also shown in vivo antimicrobial activity against experimental bacterial infections. When two doses of test compound were administered to mice in experimental infections, the activity observed was measured as an ED50 value [effective dose in mg/kg to protect 50% of the test animals: see Warren Wick, et al., J. Bacteriol. 81, 233-235 (1961)].

Staphylococcus aureus = test: ED50 vs. Staphylococcus aureus experimental infection in mice (Table V); type: in vivo; settings: sc, subcutaneous, two doses, dose protecting 50% of animals, read-out: ED50 Subcutaneous
Method: as §1

[2] = tested on: Streptococcus pneumoniae Park I; test: microbe, parasite or virus in culture; type: cell-based; settings: Streptococcus pneumoniae
Method: (§2) The MIC's s in Table III were determined by standard agar-dilution assays. The MIC's in Table IV were obtained using a conventional broth-dilution microtiter test.

Streptococcus pyogenes = test: ED50 vs Streptococcus pyogenes experimental infection in mice (Table VI); type: in vivo; settings: two doses, several values = results from more than one test
Method: as §1

[3] = tested on: Pasteurella multocida 17E; test: MIC, conventional broth-dilution microtiter test (Table IV); type: cell-based
Method: as §2

[4] = tested on: Pasteurella multocida 22A; test: as above; type: cell-based
Method: as §2

[5] = tested on: Pasteurella hemolytica 22C; test: as above; type: cell-based
Method: as §2

[6] = tested on: Mycoplasma hyopneumoniae S5972; test: as above; type: cell-based; settings: Mesomycoplasma hyopneumoniae
Method: as §2

[7] = tested on: Pasteurella multocida 68C; test: as above; type: cell-based
Method: as §2

[8] = tested on: Bordetella bronchisepticum 95B; test: as above; type: cell-based
Method: as §2

[9] = tested on: Mycoplasma gallisepticum 29C; test: as above; type: cell-based; settings: Mycoplasmoides gallisepticum, 29C
Method: as §2

[10] = tested on: Pasteurella hemolytica 41D; test: as above; type: cell-based
Method: as §2

[11] = tested on: Pasteurella hemolytica 23C; test: as above; type: cell-based
Method: as §2

[12] = tested on: Pasteurella multocida 40G; test: as above; type: cell-based
Method: as §2

[13] = tested on: Mycoplasma gallisepticum 15E; test: as above; type: cell-based; settings: Mycoplasmoides gallisepticum
Method: as §2

Streptococcus sp. 19F = test: as above; type: cell-based
Method: as §2

[14] = tested on: Pasteurella multocida 60A; test: as above; type: cell-based
Method: as §2

[15] = tested on: Staphylococcus aureus 19C; test: as above; type: cell-based
Method: as §2

Mycoplasma hyorhinis 29E = test: as above; type: cell-based; settings: broth-dilution microtiter; Mycoplasma hyorhinis 29E; read-out: MIC
Method: as §2

[16] = tested on: Mycoplasma gallisepticum 36H; test: as above; type: cell-based; settings: Mycoplasmoides gallisepticum
Method: as §2

Mycoplasma synoviae 40A = test: as above; type: cell-based; settings: Mycoplasmopsis synoviae, 40A
Method: as §2

Pasteurella multocida = test: Activity in Pasteurella multocida-infected one-day-old chicks (Table VIII); type: in vivo; settings: subcutaneous 30 mg/kg × 2, 1 and 4 hours post-challenge, all non-medicated chicks died within 24 hours
Method: Table VIII summarizes the results of tests in which illustrative compounds were evaluated against a Pasteurella infection in one-day-old chicks. The compounds were administered parenterally after challenge of the chicks with Pasteurella multocida (0.1 mL of a 10^-4 dilution of a twenty-hour tryptose broth culture of an avian P. multocida given subcutaneously). In these tests, all non-medicated infected chicks died within 24 hours of Pasteurella challenge. In the tests summarized in Table VIII, the compounds were administered by subcutaneous injection at a dosage of 30 mg/kg, 1 and 4 hours post-challenge of the chicks with P. multocida.

[17] = tested on: Haemophilus influenzae 76; test: MIC, standard agar-dilution assay (Table III); type: cell-based
Method: as §2

[18] = tested on: Streptococcus pyogenes C203; test: MIC, standard agar-dilution assay (Table III); type: cell-based
Method: as §2

[19] = tested on: Streptococcus Group D X66; test: MIC, standard agar-dilution assay (Table III); type: cell-based
Method: as §2

[20] = tested on: Streptococcus Group D 2041; test: MIC, standard agar-dilution assay (Table III); type: cell-based; settings: GROUPD2041
Method: as §2

[21] = tested on: Staphylococcus epidermidis 222; test: MIC, standard agar-dilution assay (Table III); type: cell-based
Method: as §2

[22] = tested on: Staphylococcus epidermidis EPI1; test: MIC, standard agar-dilution assay (Table III); type: cell-based; settings: Staphylococcus epidermidis, EPI1
Method: as §2

[23] = tested on: Staphylococcus aureus S13E; test: MIC, standard agar-dilution assay (Table III); type: cell-based
Method: as §2

[24] = tested on: Staphylococcus aureus X1.1; test: MIC, standard agar-dilution assay (Table III); type: cell-based
Method: as §2

[25] = tested on: Staphylococcus aureus V41; test: MIC, standard agar-dilution assay (Table III); type: cell-based; settings: Staphylococcus aureus V41, penicillin-resistant strain
Method: as §2

[26] = tested on: Haemophilus influenzae C.L.; test: MIC, standard agar-dilution assay (Table III); type: cell-based
Method: as §2

[27] = tested on: Staphylococcus aureus X400; test: MIC, standard agar-dilution assay (Table III); type: cell-based
Method: as §2

[28] = broth-dilution microtiter, Pasteurella multocida 22A, read-out: MIC
[29] = broth-dilution microtiter, Pasteurella multocida 68C, read-out: MIC
[30] = broth-dilution microtiter, Pasteurella hemolytica 41D, read-out: MIC
[31] = broth-dilution microtiter, Pasteurella hemolytica 23C, read-out: MIC
[32] = broth-dilution microtiter, Pasteurella multocida 40G, read-out: MIC
[33] = broth-dilution microtiter, Mycoplasma hyopneumoniae S5972, read-out: MIC
[34] = broth-dilution microtiter, Mycoplasma gallisepticum 15E, read-out: MIC
[35] = broth-dilution microtiter, Mycoplasma gallisepticum 36H, read-out: MIC
[36] = agar dilution, Haemophilus influenzae 76, ampicillin-resistant strain, read-out: MIC
[37] = agar dilution, Streptococcus pyogenes C203, read-out: MIC
[38] = agar dilution, Staphylococcus epidermidis 222, read-out: MIC

Row | SMILES | ED50 [1] [mg/kg] | ED50 (Staphylococcus aureus) [mg/kg] | MIC [2] [µg/mL] | ED50 (Streptococcus pyogenes; po, read-out: ED50 Oral) [mg/kg] | MIC ([3]; Pasteurella multocida, 17E) [µg/mL] | MIC [4, 28] [µg/mL] | MIC [7, 29] [µg/mL] | MIC [8] [µg/mL] | MIC [9] [µg/mL] | MIC [10, 30] [µg/mL] | MIC (Streptococcus sp. 19F) [µg/mL] | MIC (Mycoplasma hyorhinis 29E) [µg/mL] | MIC (Mycoplasma synoviae 40A) [µg/mL] | Number of Deaths/Number Treated (Pasteurella multocida) | MIC [19] [µg/mL] | MIC [20] [µg/mL] | MIC [22] [µg/mL] | MIC [23] [µg/mL] | MIC [24] [µg/mL] | MIC [25] [µg/mL] | also measured
1 | CCC1OC(=O)CC(O)C(C)C(OC2OC(C)C(O)C(N(C)C)C2O)C(CC=O)CC(C)C(=O)C=CC(C)=CC1CN1CC2CCC(CC2)C1 (stereo not drawn) [Compound 17, 23-(3-azabicyclo[3.2.2]nonan-3-yl)-OMT] | > 10 | 2.31 | 0.06 (≈ 0.0851 µM) | > 100 | 0.78 (≈ 1.11 µM) | 0.39 (≈ 0.553 µM) | 0.39 (≈ 0.553 µM) | 6.25 (≈ 8.87 µM) | < 0.048 | 0.39 (≈ 0.553 µM) | 0.39 (≈ 0.553 µM) | 0.39 (≈ 0.553 µM) | < 0.048 | 10/10 | 0.5 (≈ 0.709 µM) | 1 (≈ 1.42 µM) | 0.5 (≈ 0.709 µM) | 0.5 (≈ 0.709 µM) | 0.5 (≈ 0.709 µM) | 0.5 (≈ 0.709 µM) | ED50 (Streptococcus pyogenes; sc, subcutaneous, read-out: ED50 Subcutaneous): 9.09 mg/kg; ED50 Subcutaneous (Streptococcus pyogenes; subcutaneous): > 10 mg/kg × 2; MIC ([5]; broth-dilution microtiter, Pasteurella hemolytica 22C, read-out: MIC): 0.39 µg/mL (≈ 0.553 µM); MIC ([6]; S5972): 0.048 µg/mL (≈ 0.0681 µM); MIC [11, 31]: 0.39 µg/mL (≈ 0.553 µM); MIC [12, 32]: 0.39 µg/mL (≈ 0.553 µM); MIC ([13]; 15E): 50 µg/mL (≈ 70.9 µM); MIC ([14]; Pasteurella multocida, 60A): 0.78 µg/mL (≈ 1.11 µM); MIC ([15]; Staphylococcus aureus, 19C): 0.78 µg/mL (≈ 1.11 µM); MIC ([16]; 36H): 50 µg/mL (≈ 70.9 µM); MIC ([17]; Haemophilus influenzae, 76): 2 µg/mL (≈ 2.84 µM); MIC ([18]; Streptococcus pyogenes, C203): 0.25 µg/mL (≈ 0.355 µM); MIC ([21]; Staphylococcus epidermidis, 222): 0.25 µg/mL (≈ 0.355 µM); MIC ([26]; Haemophilus influenzae): 2 µg/mL (≈ 2.84 µM); MIC ([27]; Staphylococcus aureus, X400): 0.5 µg/mL (≈ 0.709 µM)
2 | CCC1OC(=O)CC(O)C(C)C(OC2OC(C)C(O)C(N(C)C)C2O)C(CC=O)CC(C)C(=O)C=CC(C)=CC1CNC12CC3CC(CC(C3)C1)C2 (stereo not drawn) [Compound 1, 23-deoxy-23-(1-adamantanylamino)-OMT] | 2.5 | 3.58 | – | > 100 | 0.78 (≈ 1.07 µM) | – | – | 6.25 (≈ 8.55 µM) | 0.097 (≈ 0.133 µM) | – | < 0.048 | 0.39 (≈ 0.534 µM) | < 0.048 | 0/10 | 0.5 (≈ 0.684 µM) | 0.5 (≈ 0.684 µM) | 0.5 (≈ 0.684 µM) | 0.5 (≈ 0.684 µM) | 0.5 (≈ 0.684 µM) | 0.5 (≈ 0.684 µM) | MIC ([2]; read-out: MIC): 0.06 µg/mL (≈ 0.0821 µM); ED50 Oral (Streptococcus pyogenes; oral): 81.8 mg/kg × 2; MIC ([4]; Pasteurella multocida, 22A): 0.78 µg/mL (≈ 1.07 µM); MIC ([5]; Pasteurella, 22C): 3.12 µg/mL (≈ 4.27 µM); MIC [6, 33]: < 0.024 µg/mL; MIC ([7]; Pasteurella multocida, 68C): 0.78 µg/mL (≈ 1.07 µM); MIC ([10]; Pasteurella, 41D): 1.56 µg/mL (≈ 2.13 µM); MIC ([11]; Pasteurella, 23C): 1.56 µg/mL (≈ 2.13 µM); MIC ([12]; Pasteurella multocida, 40G): 0.78 µg/mL (≈ 1.07 µM); MIC [13, 34]: 6.25 µg/mL (≈ 8.55 µM); MIC ([14]; Pasteurella multocida, 60A): 0.78 µg/mL (≈ 1.07 µM); MIC ([15]; Staphylococcus aureus, 19C): 0.78 µg/mL (≈ 1.07 µM); MIC [16, 35]: 6.25 µg/mL (≈ 8.55 µM); MIC [17, 36]: 0.5 µg/mL (≈ 0.684 µM); MIC [18, 37]: 0.125 µg/mL (≈ 0.171 µM); MIC [21, 38]: 0.125 µg/mL (≈ 0.171 µM); MIC ([26]; Haemophilus influenzae): 2 µg/mL (≈ 2.74 µM); MIC ([27]; Staphylococcus aureus, X400): 0.5 µg/mL (≈ 0.684 µM)
3 | CCC1OC(=O)CC(O)C(C)C(OC2OC(C)C(O)C(N(C)C)C2O)C(CC=O)CC(C)C(=O)C=CC(C)=CC1CN1CCCC2CCCCC21 (stereo not drawn) [Compound 20, 23-deoxy-23-(decahydroquinolin-1-yl)-OMT] | 5 | 10 | 0.03 (≈ 0.0417 µM) | 77 | – | 0.78 (≈ 1.08 µM) | 0.78 (≈ 1.08 µM) | 6.25 (≈ 8.69 µM) | > 0.048 | 1.56 (≈ 2.17 µM) | < 0.048 | 0.39 (≈ 0.542 µM) | < 0.048 | 6/10 and 8/10 | 0.25 (≈ 0.348 µM) | 0.25 (≈ 0.348 µM) | 0.25 (≈ 0.348 µM) | 0.25 (≈ 0.348 µM) | 0.25 (≈ 0.348 µM) | 0.25 (≈ 0.348 µM) | MIC ([3]; broth-dilution microtiter, Pasteurella multocida 17E, bovine isolate, read-out: MIC): 0.78 µg/mL (≈ 1.08 µM); MIC ([5]; Pasteurella, 22C): 3.12 µg/mL (≈ 4.34 µM); MIC [6, 33]: < 0.024 µg/mL; MIC [11, 31]: 0.78 µg/mL (≈ 1.08 µM); MIC [12, 32]: 0.39 µg/mL (≈ 0.542 µM); MIC [13, 34]: 0.39 µg/mL (≈ 0.542 µM); MIC ([14]; broth-dilution microtiter, Pasteurella multocida 60A, avian isolate, read-out: MIC): 0.78 µg/mL (≈ 1.08 µM); MIC ([15]; broth-dilution microtiter, Staphylococcus aureus 19C, read-out: MIC): 1.56 µg/mL (≈ 2.17 µM); MIC [16, 35]: 0.78 µg/mL (≈ 1.08 µM); MIC [17, 36]: 1 µg/mL (≈ 1.39 µM); MIC [18, 37]: 0.125 µg/mL (≈ 0.174 µM); MIC [21, 38]: 0.125 µg/mL (≈ 0.174 µM); MIC ([26]; agar dilution, Haemophilus influenzae C.L., ampicillin-sensitive strain, read-out: MIC): 1 µg/mL (≈ 1.39 µM); MIC ([27]; agar dilution, Staphylococcus aureus X400, methicillin-resistant strain, read-out: MIC): 0.5 µg/mL (≈ 0.695 µM)
